The results in this text go back to patent US20260234099A1, “Endocannabinoid ligands and related analogs” (Northeastern University, priority 2023, published 2026).

Read-outs that look alike come from different tables or passages of the source. Where only a bound is given, the exact number is not on record here.

Test [1] addresses T1, CB1 receptor (Rattus norvegicus, UniProt P20272). In words: GTPγ-S binding assay, CB1. In kind it is biochemical. Conditions: class symbols; read-out: EC50 (GTP) CB1 receptor. How it is done: The activity of some of the disclosed compounds for the CB1 and CB2 receptors was assessed by using the GTPγ-S binding assay (Tables 2,3,4). As used herein the “effect” of the compound on the GTPγ-S assay is represented by the EC50 (GTP) value. […] Med. Chem. Letters 2006, 16(9), 2437 and Griffin, et al., J. Pharmacol. Exp. Ther. 1998, 285(2), 553-560 the content of which is hereby incorporated by reference.
On the technique in general: GTPγS resists hydrolysis and so accumulates on activated G proteins.

The next test has as its target CB2 receptor (Homo sapiens, UniProt P34972). In words: CB2 receptor binding affinity (Ki). Also on record: CB2 receptor Ki; CB2 receptor Ki (PMSF); other: with PMSF. On the procedure: (§1) Some disclosed compounds were tested for CB1 and CB2 receptor binding affinity (Tables 1, 2, 3, 4, 5). As used herein “binding affinity” is represented by the Ki value. The Ki value is the affinity constant and describes the affinity of the compound for the receptor. […] A detailed description of the methods used to test “binding affinity” of compounds is given in Makriyannis, et al., US 2007/0135388 the content of which is hereby incorporated by reference.

Another test concerns the target CB1 receptor (rCB1) (Rattus norvegicus, UniProt P20272). In words: cAMP assay (inhibition of FSK stimulated cAMP), CB1. In kind it is cell-based. How it is done: Further functional characterization of some of the disclosed compounds tested initially for “binding affinity” or for GTPγ-S binding was performed by using the cyclic adenosine monophosphate (cAMP) assay. […] A detailed description of the methods used to test compounds using the cAMP assay is given in Yingpeng, et al. J. Med. Chem. (2018) 61, 8639-8657 the content of which is hereby incorporated by reference. The EC50 values (potency of a test compound) of the functional assays may or may not be accompanied by the E(max) value in tables 1-5 (efficacy of the test compound). E(max)/efficacy is the maximum GTP stimulation or cAMP inhibition levels and is presented as the percentage of maximum response evoked by a standard CB1/CB2 full agonist (e.g., CP-55,940) for reference see the paper cited above.
A general note: Cyclic AMP is a second messenger, typically raised through Gs and lowered through Gi signalling.

The target in test [2] is T1, CB1 receptor. As to the kind of experiment: CB1 receptor binding affinity (Ki). The settings on record: for CB1 over CB2 preference: CB1 vs CB2, Tables 1 and 5; for binding affinity for CB1 receptor compared to endogenous AEA: vs AEA, Table 5. On the procedure: as §1
Setting [3] is: with PMSF, read-out: CB1 Receptor Ki with PMSF.
The mark [4] stands for this setting: without PMSF, read-out: CB1 receptor affinity Ki.

A word on the EC50: it is the concentration that produces a half-maximal response. What is called Ki is a measure of affinity in units of concentration, obtained from inhibition or displacement. One may read the Emax as the greatest response seen or fitted, relative to the assay's reference.

T1 sequence (P20272 whole entry): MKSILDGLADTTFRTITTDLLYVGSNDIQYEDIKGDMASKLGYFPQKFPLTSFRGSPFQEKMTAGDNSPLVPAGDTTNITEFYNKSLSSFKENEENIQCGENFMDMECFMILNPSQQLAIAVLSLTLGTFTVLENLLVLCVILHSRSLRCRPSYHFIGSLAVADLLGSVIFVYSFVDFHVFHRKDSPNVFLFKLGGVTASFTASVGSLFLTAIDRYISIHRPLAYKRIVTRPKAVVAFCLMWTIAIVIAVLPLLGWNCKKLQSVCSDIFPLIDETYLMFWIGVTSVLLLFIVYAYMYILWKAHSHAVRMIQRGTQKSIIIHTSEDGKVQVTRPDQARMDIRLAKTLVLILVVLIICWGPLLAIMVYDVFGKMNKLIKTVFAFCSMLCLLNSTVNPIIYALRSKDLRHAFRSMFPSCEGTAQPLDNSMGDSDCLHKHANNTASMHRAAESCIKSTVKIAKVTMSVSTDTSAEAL
Sequence of CB1 receptor (rCB1) (P20272 whole entry): as above

As for `CCCCC/C=C\C/C=C\C/C=C\C/C=C\COC(C)C(=O)OC(CO)CO` (stereo not shown) [Compound 5.3.3, 1,3-Dihydroxypropan-2-yl 2-(((2Z,5Z,8Z,11Z)-heptadeca-2,5,8,11-tetraen-1-yl)oxy)propanoate], on CB1 receptor [1], the half-maximal effective concentration (EC50) was greater than 1000 nM.

For `C[C@H](/C=C\C/C=C\C/C=C\CCCC(=O)N[C@H](C)CO)/C=C\CCCCCC#N` [Compound 4.1.5a, (S,5Z,8Z,11Z,14Z)-20-Cyano-N—((R)-1-hydroxypropan-2-yl)-13-methylicosa-5,8,11,14-tetraenamide], the inhibitory constant (Ki) at CB2 receptor (read-out: CB2 receptor Ki), at CB1 receptor [2] (setting [3]) and on CB1 receptor [2] (setting [4]) was 0.01 to 10 nM each time. In addition, on CB1 receptor (rCB1) (full or partial agonist), the “functional profile at CB1 (cAMP)” value was “partial agonist”. On CB1 receptor (rCB1) (numeric), this molecule returned an EC50 of 8.7 nM. This molecule also returned an Emax on CB1 receptor (rCB1) (percentage of maximum response of standard full agonist (e.g., CP-55,940)) of 76%.

Regarding `C[C@H](/C=C\C/C=C\C/C=C\CCCC(=O)N[C@H](C)CO)/C=C\CCCCCO[N+](=O)[O-]` [Compound 4.1.5b, (S,6Z,9Z,12Z,15Z)-20-(((R)-1-Hydroxypropan-2-yl)amino)-8-methyl-20-oxoicosa-6,9,12,15-tetraen-1-yl Nitrate], the Ki on CB2 receptor (read-out: CB2 receptor Ki) fell in the range of 10 to 200 nM; at CB1 receptor [2] (setting [3]), 0.01 to 10 nM; on CB1 receptor [2] (setting [4]), 0.01 to 10 nM. The “CB1 over CB2 preference” value on CB1 receptor [2] is “bind to and stimulate preferentially the CB1 receptors”.

As for `CCCCC1(/C=C\C/C=C\C/C=C\C/C=C\CCCC(=O)N[C@H](C)CO)CCCC1` [Compound 4.4.3, (5Z,8Z,11Z,14Z)-15-(1-Butylcyclopentyl)-N—((R)-1-hydroxypropan-2-yl)pentadeca-5,8,11,14-tetraenamide], the Ki is greater than 1000 nM on CB2 receptor (read-out: CB2 receptor Ki (PMSF), with PMSF) and 200 to 1000 nM on CB1 receptor [2] (setting [3]).

For the molecule `CCCCC/C=C\C/C=C\C/C=C\Cc1ccccc1CCCC(=O)N[C@H](C)CO` [Compound 4.3.5, N—((R)-1-Hydroxypropan-2-yl)-4-(2-((2Z,5Z,8Z)-tetradeca-2,5,8-trien-1-yl)phenyl)butanamide], the results for the Ki on CB2 receptor (read-out: CB2 receptor Ki), at CB1 receptor [2] (setting [3]) and on CB1 receptor [2] (setting [4]) were 10 to 200 nM, 10 to 200 nM and 0.01 to 10 nM, respectively. Besides, on CB1 receptor [2], the “CB1 over CB2 preference” value is “bind to and stimulate preferentially the CB1 receptors”. The “binding affinity for CB1 receptor compared to endogenous AEA” value at CB1 receptor [2] was “substantially higher binding affinities”.

`C[C@H](/C=C\C/C=C\C/C=C\CCCC(=O)N[C@H](C)CO)/C=C\CCCCCF` [Compound 4.7.4, (S,5Z,8Z,11Z,14Z)-20-Fluoro-N—((R)-1-hydroxypropan-2-yl)-13-methylicosa-5,8,11,14-tetraenamide]: the results for the Ki at CB2 receptor (read-out: CB2 receptor Ki) and on CB1 receptor [2] (setting [4]) were 10 to 200 nM and 0.01 to 10 nM, respectively.

For `CCCCC/C=C\C/C=C\C/C=C\C/C=C\C1CC1C(=O)NCCO` (stereo not shown) [Compound 4.2.2a, 2-((1Z,4Z,7Z,10Z)-Hexadeca-1,4,7,10-tetraen-1-yl)-N-(2-hydroxyethyl)cyclopropane-1-carboxamide], the Ki on CB2 receptor (read-out: CB2 receptor Ki) and on CB1 receptor [2] (setting [4]) was greater than 1000 nM each time.

For `CCCCC/C=C\C/C=C\C/C=C\Cc1ccccc1CCCC(=O)NCCO` [Compound 4.3.4, N-(2-Hydroxyethyl)-4-(2-((2Z,5Z,8Z)-tetradeca-2,5,8-trien-1-yl)phenyl)butanamide], the Ki at CB2 receptor (read-out: CB2 receptor Ki), at CB1 receptor [2] (setting [3]) and at CB1 receptor [2] (setting [4]) was 10 to 200 nM in each case. Besides, the “binding affinity for CB1 receptor compared to endogenous AEA” value on CB1 receptor [2] is “substantially higher binding affinities”.

For the molecule `CCCCC/C=C\C/C=C\C/C=C\C/C=C\C1CC(C(=O)NCCO)C1` (stereo not shown) [Compound 4.2.2c], the Ki on CB2 receptor (read-out: CB2 receptor Ki) and on CB1 receptor [2] (setting [3]) was 200 to 1000 nM each time.
